Assay results reported in patent publication US20220315554A1, “COMPOUNDS COMPRISING A […] LIGAND AND USE THEREOF” (priority 2019, published 2022).
pIC50: −log10 of the molar value. Numbered stars: 1 amine (or outer) side, 2 acyl side, 3 side chain; on linkers, the order of the positions; unused ones are H or OH. Bridge positions count the residues as written; N and C are the ends. Square brackets hold non-standard residues; d marks the D form. Peptide text beside a SMILES is read from it. * marks the point of attachment. X1 = O=C(O)CN1CCN(CC(=O)O)CCN(CC(=O)N2CCN(Cc3cc(C[*:1])cc(C[*:2])c3)CC2)CCN(CC(=O)O)CC1; X35 = O=C(O)CN(CCN(CCN(CC(=O)O)CC(=O)O)CC(=O)NCCCOCCOCCOCCCN*)CC(=O)O; X39 = NCCOCCOCC(=O)NCCSCc1cc(C[*:1])cc(C[*:2])c1; X12 = NCCNCC(CNCCN)C(=O)NCCCOCCOCCOCCCN*; mXylylene = c1cc(C[*:1])cc(C[*:2])c1; X25 = NCCSCc1cc(C[*:1])cc(C[*:2])c1; X41 = NCCCCCC(=O)NCCCOCCOCCOCCCN*; X51 = O=C(CN1CCC(N[*:1])CC1)[*:2]; 4Pal = N[C@@H](Cc1ccncc1)C(=O)O; Suc = O=C(CCC(=O)[*:2])[*:1]; X18 = NCCNCC(CNCCN)C(=O)*; Nle = CCCC[C@H](N)C(=O)O; Hexanoyl = CCCCCC(=O)*; AEEA = NCCOCCOCC(=O)O

Legend:
[1] = target: T1, FAP-expressing human WI-38 fibroblasts (Homo sapiens, UniProt Q12884); test: Competitive FACS binding assay; settings: pIC50 Category (FACS), competition with 3 nM Cy5-labeled compound, 4° C., 1 hour
T1 construct: FAP-expressing human WI-38 fibroblasts (ECACC) were cultured in EMEM; host or cells: WI-38 human fibroblasts
T1 sequence (Q12884 1-760): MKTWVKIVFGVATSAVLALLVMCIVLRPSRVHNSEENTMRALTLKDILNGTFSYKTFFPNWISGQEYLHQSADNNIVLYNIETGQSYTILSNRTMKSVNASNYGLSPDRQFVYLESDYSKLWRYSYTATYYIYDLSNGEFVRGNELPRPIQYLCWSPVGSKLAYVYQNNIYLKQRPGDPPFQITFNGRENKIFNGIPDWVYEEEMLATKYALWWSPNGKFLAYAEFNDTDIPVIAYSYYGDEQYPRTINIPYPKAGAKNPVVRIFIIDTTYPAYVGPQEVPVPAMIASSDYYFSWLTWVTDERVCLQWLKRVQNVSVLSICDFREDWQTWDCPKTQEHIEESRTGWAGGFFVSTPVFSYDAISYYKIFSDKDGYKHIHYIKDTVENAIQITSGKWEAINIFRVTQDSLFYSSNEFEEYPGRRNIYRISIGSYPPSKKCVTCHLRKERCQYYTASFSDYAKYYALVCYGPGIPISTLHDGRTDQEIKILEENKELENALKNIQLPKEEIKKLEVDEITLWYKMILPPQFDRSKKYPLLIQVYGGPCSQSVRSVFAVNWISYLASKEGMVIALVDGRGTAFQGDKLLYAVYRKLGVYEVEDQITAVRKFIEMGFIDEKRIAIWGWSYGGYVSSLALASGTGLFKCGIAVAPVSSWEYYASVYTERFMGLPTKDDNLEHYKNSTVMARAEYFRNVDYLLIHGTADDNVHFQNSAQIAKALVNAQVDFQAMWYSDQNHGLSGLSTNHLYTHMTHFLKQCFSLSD
Protocol: Cells were analyzed in an Attune NxT flow cytometer. […]

Human recombinant FAP = target: T2, Human recombinant FAP (Homo sapiens, UniProt Q12884); test: FRET-based FAP protease activity assay; format: biochemical; parameters: purchased R&D systems 3715-SE; settings: pIC50 Category (Activity), FRET substrate, 37° C.
T2 sequence (Q12884 1-760): T1 sequence (Q12884 1-760)

| Compound | pIC50 [1] | pIC50 (Human recombinant FAP) |
| --- | --- | --- |
| CCCCCC(=O)N[C@H]1CSCc2cc(CSCCN)cc(c2)CSC[C@@H](C(=O)N[C@@H](CC(=O)O)C(N)=O)NC(=O)[C@H](Cc2ccccc2)NC(=O)[C@H](CCC(N)=O)NC(=O)[C@H]([C@@H](C)O)NC(=O)[C@@H]2CCCN2C(=O)[C@@H]2CCCN2C1=O [3BP-3981, Hex-[Cys-(tMeBn(H-AET))-Pro-Pro-Thr-Gln-Phe-Cys]-Asp-NH2] (Hexanoyl-CPPTQFCD-NH2; linker 1-7 via X25) | 7.10 to 8.00 | > 8.00 |
| CCCCCC(=O)N[C@H]1CSCc2cc(CSCCNC(=O)COCCOCCN)cc(c2)CSC[C@@H](C(=O)N[C@@H](CC(=O)O)C(N)=O)NC(=O)[C@H](Cc2ccccc2)NC(=O)[C@H](CCC(N)=O)NC(=O)[C@H]([C@@H](C)O)NC(=O)[C@@H]2CCCN2C(=O)[C@@H]2CCCN2C1=O [3BP-4003, Hex-[Cys-(tMeBn(H-O2Oc-AET))-Pro-Pro-Thr-Gln-Phe-Cys]-Asp-NH2] (Hexanoyl-CPPTQFCD-NH2; linker 1-7 via X39) | > 8.00 | > 8.00 |
| CCCC[C@H](NC(=O)CCC(=O)NCCCOCCOCCOCCCNC(=O)CCCCCN)C(=O)N[C@H]1CSCc2cc(cc(CN3CCN(C(=O)CN4CCN(CC(=O)O)CCN(CC(=O)O)CCN(CC(=O)O)CC4)CC3)c2)CSC[C@@H](C(=O)N[C@@H](CC(=O)O)C(N)=O)NC(=O)[C@H](Cc2ccccc2)NC(=O)[C@H](CCC(N)=O)NC(=O)[C@H]([C@@H](C)O)NC(=O)[C@@H]2CCCN2C(=O)[C@@H]2CCCN2C1=O [3BP-4004, H-Ahx-Ttds-Nle-[Cys-(tMeBn(DOTA-PP))-Pro-Pro-Thr-Gln-Phe-Cys]-Asp-NH2] ({X41-Suc}-[Nle]CPPTQFCD-NH2; linker 2-8 via X1) | 7.10 to 8.00 | > 8.00 |
| CCCCCC(=O)N[C@H]1CSCc2cc(CSCCN)cc(c2)CSC[C@@H](C(=O)O)NC(=O)[C@H](Cc2ccccc2)NC(=O)[C@H](CCC(N)=O)NC(=O)[C@H]([C@@H](C)O)NC(=O)[C@@H]2CCCN2C(=O)[C@@H]2CCCN2C1=O [3BP-4089, Hex-[Cys(tMeBn(H-AET))-Pro-Pro-Thr-Gln-Phe-Cys]-OH] | 6.10 to 7.00 | 7.10 to 8.00 |
| CCCCCC(=O)N[C@@H]1CSCc2cc(CSCCNC(=O)CN3CCN(CC(=O)O)CCN(CC(=O)O)CCN(CC(=O)O)CC3)cc(c2)CSC[C@@H](C(=O)O)NC(=O)[C@H](Cc2ccccc2)NC(=O)[C@H](CCC(N)=O)NC(=O)[C@H]([C@@H](C)O)NC(=O)[C@@H]2CCCN2C(=O)[C@@H]2CCCN2C1=O [3BP-4109, Hex-[D-Cys-(tMeBn(DOTA-AET))-Pro-Pro-Thr-Gln-Phe-Cys]-OH] | > 8.00 | > 8.00 |
| CCCCCC(=O)N[C@@H]1CSCc2cc(CSCCNC(=O)CN3CCN(CC(=O)O)CCN(CC(=O)O)CCN(CC(=O)O)CC3)cc(c2)CSC[C@H](C(=O)O)NC(=O)[C@H](Cc2ccccc2)NC(=O)[C@H](CCC(N)=O)NC(=O)[C@H]([C@@H](C)O)NC(=O)[C@@H]2CCCN2C(=O)[C@@H]2CCCN2C1=O [3BP-4110, Hex-[D-Cys-(tMeBn(DOTA-AET))-Pro-Pro-Thr-Gln-Phe-D-Cys]-OH] | 7.10 to 8.00 | 7.10 to 8.00 |
| CCCCCC(=O)N[C@H]1CSCc2cc(CSCCNC(=O)CN3CCN(CC(=O)O)CCN(CC(=O)O)CCN(CC(=O)O)CC3)cc(c2)CSC[C@H](C(=O)O)NC(=O)[C@H](Cc2ccccc2)NC(=O)[C@H](CCC(N)=O)NC(=O)[C@H]([C@@H](C)O)NC(=O)[C@@H]2CCCN2C(=O)[C@@H]2CCCN2C1=O [3BP-4111, Hex-[Cys-(tMeBn(DOTA-AET))-Pro-Pro-Thr-Gln-Phe-D-Cys]-OH] | 7.10 to 8.00 | 7.10 to 8.00 |
| CCCCCC(=O)N[C@H]1CSCc2cc(cc(CN3CCN(C(=O)COCCOCCNC(=O)C(CNCCN)CNCCN)CC3)c2)CSC[C@@H](C(=O)O)NC(=O)[C@H](Cc2ccccc2)NC(=O)[C@H](CCC(N)=O)NC(=O)[C@H]([C@@H](C)O)NC(=O)[C@@H]2CCCN2C(=O)[C@@H]2CCCN2C1=O [3BP-4169, Hex-[Cys-(tMeBn(N4Ac-O2Oc-PP))-Pro-Pro-Thr-Gln-Phe-Cys]-OH] | 7.10 to 8.00 | > 8.00 |
| CCCCCC(=O)N[C@H]1CSCc2cc(CSCCNC(=O)CCC(=O)NCCCOCCOCCOCCCNC(=O)CCC(=O)NCCCOCCOCCOCCCNC(=O)CCC(=O)NCCCOCCOCCOCCCNC(=O)CCCNCCCOCCOCCOCCCNC(=O)CCCC[C@H]3SC[C@H]4NC(=O)N[C@H]43)cc(c2)CSC[C@@H](C(=O)O)NC(=O)[C@H](Cc2ccccc2)NC(=O)[C@H](CCC(N)=O)NC(=O)[C@H]([C@@H](C)O)NC(=O)[C@@H]2CCCN2C(=O)[C@@H]2CCCN2C1=O [3BP-4170, Hex-[Cys-(tMeBn(Bio-Ttds-Ttds-Ttds-Ttds-AET))-Pro-Pro-Thr-Gln-Phe-Cys]-OH] | 7.10 to 8.00 | 7.10 to 8.00 |
| CCCCCC(=O)N[C@H]1CSCc2cc(cc(CN3CCNCC3)c2)CSC[C@@H](C(=O)O)NC(=O)[C@H](Cc2ccccc2)NC(=O)[C@H](CCC(N)=O)NC(=O)[C@H]([C@@H](C)O)NC(=O)[C@@H]2CCCN2C(=O)[C@@H]2CCCN2C1=O [3BP-4181, Hex-[Cys-(tMeBn(H-PP))-Pro-Pro-Thr-Gln-Phe-Cys]-OH] | 7.10 to 8.00 | 7.10 to 8.00 |
| CCCCCC(=O)N[C@H]1CSCc2cccc(c2)CSC[C@@H](C(=O)O)NC(=O)[C@H](Cc2ccccc2)NC(=O)[C@H](CCC(N)=O)NC(=O)[C@H]([C@@H](C)O)NC(=O)[C@@H]2CCCN2C(=O)[C@@H]2CCCN2C1=O [3BP-4186, Hex-[Cys-(3MeBn)-Pro-Pro-Thr-Gln-Phe-Cys]-OH] | 7.10 to 8.00 | 7.10 to 8.00 |
| CCCCCC(=O)N[C@H]1CSCc2cc(CSCCNC(=O)CN(CCN(CC(=O)O)CC(=O)O)CCN(CC(=O)O)CC(=O)O)cc(c2)CSC[C@@H](C(=O)O)NC(=O)[C@H](Cc2ccccc2)NC(=O)[C@H](CCC(N)=O)NC(=O)[C@H]([C@@H](C)O)NC(=O)[C@@H]2CCCN2C(=O)[C@@H]2CCCN2C1=O [3BP-4214, Hex-[Cys-(tMeBn(DTPA-AET))-Pro-Pro-Thr-Gln-Phe-Cys]-OH] | 7.10 to 8.00 | 7.10 to 8.00 |
| CCCC[C@H](NC(=O)CN1CCC(NC(=O)C(CNCCN)CNCCN)CC1)C(=O)N[C@H]1CSCc2cccc(c2)CSC[C@@H](C(=O)O)NC(=O)[C@H](Cc2ccccc2)NC(=O)[C@H](CCC(=O)O)NC(=O)[C@H]([C@@H](C)O)NC(=O)[C@@H]2CCCN2C(=O)[C@@H]2CCCN2C1=O [3BP-4220, N4Ac-APAc-Nle-[Cys-(3MeBn)-Pro-Pro-Thr-Glu-Phe-Cys]-OH] (X18-[X51][Nle]CPPTEFC-OH; linker 3-9 via mXylylene) | < 6.00 | < 6.00 |
| CCCC[C@H](NC(=O)CCC(=O)NCCCOCCOCCOCCCNC(=O)C(CNCCN)CNCCN)C(=O)N[C@H]1CSCc2cccc(c2)CSC[C@@H](C(=O)O)NC(=O)[C@H](Cc2ccncc2)NC(=O)[C@H](CCC(=O)O)NC(=O)[C@H]([C@@H](C)O)NC(=O)[C@@H]2CCCN2C(=O)[C@@H]2CCCN2C1=O [3BP-4223, N4Ac-Ttds-Nle-[Cys-(3MeBn)-Pro-Pro-Thr-Glu-Ppa-Cys]-OH] ({X12-Suc}-[Nle]CPPTE[4Pal]C-OH; linker 2-8 via mXylylene) | 6.10 to 7.00 | 6.10 to 7.00 |
| CCCCCC(=O)N[C@H]1CSCc2cc(CSCCNC(=O)COCCOCCNC(=O)CN(CCN(CC(=O)O)CC(=O)O)CCN(CC(=O)O)CC(=O)O)cc(c2)CSC[C@@H](C(=O)O)NC(=O)[C@H](Cc2ccccc2)NC(=O)[C@H](CCC(N)=O)NC(=O)[C@H]([C@@H](C)O)NC(=O)[C@@H]2CCCN2C(=O)[C@@H]2CCCN2C1=O [3BP-4224, Hex-[Cys-(tMeBn(DTPA-O2Oc-AET))-Pro-Pro-Thr-Gln-Phe-Cys]-OH] | 7.10 to 8.00 | 7.10 to 8.00 |
| CCCC[C@H](NC(=O)COCCOCCNC(=O)C(CNCCN)CNCCN)C(=O)N[C@H]1CSCc2cccc(c2)CSC[C@@H](C(=O)O)NC(=O)[C@H](Cc2ccccc2)NC(=O)[C@H](CCC(=O)O)NC(=O)[C@H]([C@@H](C)O)NC(=O)[C@@H]2CCCN2C(=O)[C@@H]2CCCN2C1=O [3BP-4228, N4Ac-O2O-Nle-[Cys-(3MeBn)-Pro-Pro-Thr-Glu-Phe-Cys]-OH] ({X18-AEEA}-[Nle]CPPTEFC-OH; linker 2-8 via mXylylene) | < 6.00 | 6.10 to 7.00 |
| CCCC[C@H](NC(=O)CCC(=O)NCCCOCCOCCOCCCNC(=O)CN(CCN(CC(=O)O)CC(=O)O)CCN(CC(=O)O)CC(=O)O)C(=O)N[C@H]1CSCc2cccc(c2)CSC[C@@H](C(=O)O)NC(=O)[C@H](Cc2ccccc2)NC(=O)[C@H](CCC(=O)O)NC(=O)[C@H]([C@@H](C)O)NC(=O)[C@@H]2CCCN2C(=O)[C@@H]2CCCN2C1=O [3BP-4229, DTPA-Ttds-Nle-[Cys-(3MeBn)-Pro-Pro-Thr-Glu-Phe-Cys]-OH] ({X35-Suc}-[Nle]CPPTEFC-OH; linker 2-8 via mXylylene) | 6.10 to 7.00 | 7.10 to 8.00 |
